In brackets after ≈: the same amount, converted by molar mass.
What was measured:
Clostridium tertium = assay: MIC against anaerobes: Clostridium tertium; format: cell-based; conditions: Clostridium tertium (10)
Clostridium sordellii = assay: MIC against intestinal bacteria: Clostridium sordellii; format: cell-based; conditions: Clostridium sordellii (5)
Protocol: (§1) The in vitro activity of OPT-80 against intestinal bacteria was evaluated. The experimental procedure for which is outlined in Antimicrobial Agents and Chemotherapy, 2004, 48: 4898-4902, which is hereby incorporated by reference in its entirety.
(§2) Antimicrobial concentration ranges were selected to encompass or surpass the levels that would be achieved in the gut (to the extent that this information is available), subject to the limitations of solubility of the drugs in the testing medium. The range of concentration of OPT-80 used during testing was 0.03 μg/ml to 1024 μg/ml.
(§3) For analysis, the bacteria tested were generally placed into genus, species, or other groups with at least 10 isolates. The ranges and the MICs at which 50 and 90% of isolates were inhibited were determined except for organisms with fewer than 10 strains tested, for which only the ranges are reported (Table 8).

Clostridium ramosum = assay: MIC against intestinal bacteria: Clostridium ramosum; format: cell-based
Clostridium difficile = assay: MIC against intestinal bacteria: Clostridium difficile; format: cell-based; conditions: Clostridium difficile (23)
Protocol: as §1, §2, §3

[1] = test system: Peptostreptococcus asaccharolyticus; assay: MIC against anaerobes: Peptostreptococcus asaccharolyticus; format: cell-based; conditions: Peptostreptococcus asaccharolyticus (15)
[2] = test system: Clostridium clostridioforme; assay: MIC against intestinal bacteria: Clostridium clostridioforme; format: cell-based; conditions: Clostridium clostridioforme (4)
Protocol: as §1, §2, §3

Fusobacterium nucleatum = assay: MIC against anaerobes: Fusobacterium nucleatum; format: cell-based; conditions: Fusobacterium nucleatum (14)
Protocol: (§4) The in vitro activity of OPT-80 was determined against 350 anaerobes. The experimental procedure for which is outlined in Antimicrobial Agents and Chemotherapy, 2004, 48: 4430-4434, which is hereby incorporated by reference in its entirety.
(§5) All organisms, including the 21 C. difficile strains, were separate isolates and not clonally related. All quality-control gram-negative and -positive strains recommended by NCCLS were included with each run: in every case, results (where available) were in range.

[3] = test system: Streptococcus, formerly S. milleri group; assay: MIC against intestinal bacteria: Streptococcus, formerly S. milleri group; format: cell-based
[4] = test system: Prevotella/Porphyromonas species; assay: MIC against anaerobes: Prevotella/Porphyromonas; format: cell-based; conditions: Prevotella/Porphyromonas species (42)
Protocol: as §4, §5

[5] = test system: Peptostreptococcus anaerobius; assay: MIC against anaerobes: Peptostreptococcus anaerobius; format: cell-based; conditions: Peptostreptococcus anaerobius (15)
E. faecalis = assay: MIC against other microorganisms: E. faecalis; conditions: Enterococcus faecalis
[6] = test system: Bacteroides fragilis group spp.; assay: MIC against intestinal bacteria: Bacteroides fragilis group; format: cell-based

SMILES: CCc1c(Cl)c(O)c(Cl)c(O)c1C(=O)O[C@H]1[C@H](O)[C@H](OC)[C@H](OCC2=CC=CC[C@H](O)C(C)=C[C@H](CC)[C@@H](O[C@@H]3OC(C)(C)[C@@H](OC(=O)C(C)C)[C@H](O)[C@@H]3O)C(C)=CC(C)=CC[C@@H]([C@@H](C)O)OC2=O)O[C@@H]1C [R-Tiacumicin B, 3-[[[6-Deoxy-4-O-(3,5-dichloro-2-ethyl-4,6-dihydroxybenzoyl)-2-O-methyl-β-D-mannopyranosyl]oxy]-methyl]-12(R)-[[6-deoxy-5-C-methyl-4-O-(2-methyl-1-oxopropyl)-β-D-lyxo-hexopyranosyl]oxy]-11(S)-ethyl-8(S)-hydroxy-18(S)-(1(R)-hydroxyethyl)-9,13,15-trimethyloxacyclooctadeca-3,5,9,13,15-pentaene-2-one]
- MIC50 (Clostridium tertium): < 0.016 µg/mL
- MIC90 (Clostridium tertium): 0.03 µg/mL (≈ 0.0284 µM)
- MIC range (Clostridium tertium): <0.016 to 0.06 µg/mL
- MIC range (Clostridium sordellii): 0.06 µg/mL (≈ 0.0567 µM)
- MIC range (Clostridium ramosum; Clostridium ramosum (10)): 256 to 512 µg/mL
- MIC50 (Clostridium ramosum; Thomasclavelia ramosa): 512 µg/mL (≈ 484 µM)
- MIC90 (Clostridium ramosum; Thomasclavelia ramosa, Clostridium ramosum (10)): 512 µg/mL (≈ 484 µM)
- MIC50 (Clostridium difficile; Clostridioides difficile): 0.12 µg/mL (≈ 0.113 µM)
- MIC90 (Clostridium difficile; Clostridioides difficile): 0.25 µg/mL (≈ 0.236 µM)
- MIC range (Clostridium difficile): 0.06 to 2 µg/mL
- MIC50 ([1]; Peptoniphilus asaccharolyticus): 0.5 µg/mL (≈ 0.473 µM)
- MIC90 ([1]; Peptoniphilus asaccharolyticus): 1 µg/mL (≈ 0.945 µM)
- MIC range [1]: 0.25 to 1.0 µg/mL
- MIC range [2]: 4 to 128 µg/mL
- MIC50 (Fusobacterium nucleatum): > 128 µg/mL
- MIC90 (Fusobacterium nucleatum): > 128 µg/mL
- MIC50 [3]: 32 µg/mL (≈ 30.2 µM)
- MIC90 [3]: 32 µg/mL (≈ 30.2 µM)
- MIC range ([3]; formerly S. milleri group (14)): 16 to 64 µg/mL
- MIC50 [4]: > 128 µg/mL
- MIC90 [4]: > 128 µg/mL
- MIC50 [5]: < 0.016 µg/mL
- MIC90 [5]: < 0.016 µg/mL
- MIC range [5]: <0.016 to 0.03 µg/mL
- MIC (E. faecalis; ATCC29212, Strain ID # 4, E. faecalis (ATCC 29212)): 2 µg/mL (≈ 1.89 µM)
- MIC (E. faecalis; Strain ID # 5, E. faecalis Vanc. resistant): 4 µg/mL (≈ 3.78 µM)
- MIC (E. faecalis; Strain ID # 6, E. faecalis Vanc. resistant): 1 µg/mL (≈ 0.945 µM)
- MIC90 ([6]; Bacteroides fragilis): > 1020 µg/mL
- MIC50 ([6]; Bacteroides fragilis group spp. (50)): 256 µg/mL (≈ 242 µM)

From patent publication US8586551B2, “18-membered macrocycles and analogs thereof” (Optimer Pharmaceuticals, Inc., priority 2005, dated 2013)
